{"source": "paper PMC10459042", "about": "“Synthesis of 1,2,3-Triazole-Containing Methoxylated Cinnamides and Their Antileishmanial Activity against the Leishmania braziliensis Species” (Pharmaceuticals, 2023)", "key": {"[1]": {"test_system": "L. braziliensis-infected macrophages", "experiment": "Treatment of infected macrophages", "type": "cell-based, Leishmania braziliensis", "conditions": "48 h at 37 °C; for Number of Amastigotes per Cell after treatment: untreated 10.3; for Percentage of Infected Macrophages after Treatment: untreated 92.8", "procedure": "Murine macrophages (5 × 10^5 cells) were plated on round glass coverslips in 24-well plates in RPMI 1640 medium with added 20% FBS and 20 mmol/L L-glutamine at pH 7.4 and incubated for 24 h at 37 °C in 5% CO2. Promastigotes were added to the wells (at a ratio of 10 parasites per macrophage), and cultures were incubated for 48 h at 37 °C in a 5% CO2 environment. Free parasites were removed by extensive washing with RPMI 1640 medium, and the infected macrophages were treated with Compound 28 or AmpB (0, 1.0, 2.5 and 5.0 µg/mL in both cases) for 48 h at 37 °C in 5% CO2.\n(§1) To evaluate the inhibition of infection, promastigotes (5 × 10^6 cells) were first incubated with Compound 28 or AmpB (0, 1.0, 2.5 and 5.0 µg/mL in both cases) for 4 h at 24 °C; these were then used to infect murine macrophages (at a ratio of 10 parasites per macrophage) and incubated for 24 h at 37 °C in 5% CO2. Then, cells were fixed with 4% paraformaldehyde, washed, and stained with Giemsa. The percentage of infected macrophages and the number of recovered amastigotes were determined by counting 200 cells, in triplicate, using an optical microscope."}, "[2]": {"test_system": "L. braziliensis promastigotes infecting murine macrophages", "experiment": "Inhibition of infection (parasites pre-incubated with compound, then used to infect macrophages)", "type": "cell-based, Leishmania braziliensis", "conditions": "for Number of Amastigotes per Cell using pre-incubated parasites: untreated 8.9; for Percentage of Infected Macrophages Using Pre-Incubated Parasites: untreated 90.5", "procedure": "as §1"}, "[3]": {"test_system": "Leishmania braziliensis stationary promastigotes", "experiment": "In vitro antileishmanial activity against promastigotes (MTT)", "type": "cell-based", "procedure": "The study was approved by the Committee for the Ethical Handling of Research Animals from the Federal University of Minas Gerais (protocol number 085/2017). Leishmania braziliensis (MHOM/BR/1975/M2904) promastigotes were grown at 24 °C in Schneider’s medium (Sigma-Aldrich, USA) supplemented with 20% heat-inactivated fetal bovine serum (FBS, Sigma-Aldrich, USA) and 20 mmol/L L-glutamine at pH 7.4 [65].\n(§2) The in vitro antileishmanial activity was evaluated by incubating the promastigotes or axenic amastigotes (1 × 10^6 cells/well) with the 24 synthetic derivatives (Compounds 5–28; 0 to 600 µg/mL) in 96-well culture plates (Nunc, Nunclon, Roskilde, Denmark) for 48 h at 24 °C. Due to the difficulty in obtaining a high concentration of murine macrophages, the cytotoxicity experiment was evaluated by incubating such cells (5 × 10^5 per mL) with Compound 28 (0 to 600 µg/mL), which presented the best antileishmanial activity, for 48 h at 37 °C in a 5% CO2 environment. AmpB (0 to 10 µg/mL; Sigma-Aldrich, St. Louis, MO, USA) was used as a positive control in both experiments. The cell viability was assessed using the 3-(4.5-dimethylthiazol-2-yl)-2.5-diphenyl tetrazolium bromide (MTT, Sigma-Aldrich, St. Louis, MO, USA) method. The optical density (OD) values were read using a microplate spectrophotometer (Molecular Devices, Spectra Max Plus, San Jose, CA, USA) at 570 nm. Results were entered into Microsoft Excel (version 10.0) spreadsheets, and the 50% Leishmania and macrophage inhibitory concentrations (IC50 and CC50, respectively) were calculated by applying a sigmoidal regression of the dose–response curve. The SI was calculated by dividing the CC50 with the respective IC50 values."}, "[4]": {"experiment": "Cytotoxicity in mammalian cells (MTT)", "type": "cell-based", "conditions": "mouse; murine macrophages, 48 h at 37 °C in 5% CO2, MTT, mean ± standard deviation", "procedure": "as §2"}, "[5]": {"test_system": "Leishmania braziliensis axenic amastigotes", "experiment": "In vitro antileishmanial activity against axenic amastigotes (MTT)", "type": "cell-based", "procedure": "To obtain the axenic amastigotes, 1 × 10^9 stationary promastigotes were washed three times in sterile phosphate-buffered saline (PBS) and incubated in 5 mL FBS for 48 h at 37 °C. Parasites were washed with cold PBS, and their morphology was evaluated with an optical microscope after Giemsa staining as previously described.\nas §2"}, "[6]": {"test_system": "Leishmania braziliensis promastigotes", "experiment": "Depolarization of mitochondrial membrane potential (ΔΨm), JC-1", "type": "cell-based", "conditions": "FCCP 1.3 µg/mL (5.0 µmol/L) for 20 min; non-treated parasites 7.2", "procedure": "Leishmania braziliensis promastigotes (1 × 10^7 cells/mL) were treated with compound 28 (at a concentration corresponding to one IC50 value) for 48 h at 24 °C. The parasites (3 × 10^6 cells/mL) were then labeled with JC-1 (5 µg/mL, Sigma-Aldrich, St. Louis, MO, USA) for 30 min at 37 °C. After washing twice with PBS to remove the non-internalized dye, the samples were added to a black 96-well plate, and the ΔΨm was analyzed in a spectrofluorometer (FLx800, BioTek Instruments, Winooski, VT, USA) with an excitation filter of 485 nm and emission wavelength of 528 nm and […] to measure the green and red fluorescence, respectively. The ΔΨm was determined using the ratio between the red/green fluorescence intensity. Parasites that were exposed to 1.3 µg/mL (5.0 µmol/L) of FCCP (Sigma-Aldrich, St. Louis, MO, USA) for 20 min were used as a control. […]\nFigure 4 ΔΨm and ROS production in Leishmania after exposure to Compound 28. […] (A) Depolarization of ΔΨm was evaluated using the JC-1 fluorescent probe. Samples were analyzed fluorometrically, and the results are expressed as the ratio of red/green fluorescence. […] (B) ROS production was evaluated using the H2DCFDA probe. The fluorescence intensity was measured by fluorimetry, and the results are expressed as the fold increase in the ROS level compared with the non-treated control. […]"}, "[7]": {"test_system": "L. braziliensis promastigotes", "experiment": "ROS production in promastigotes (H2DCFDA)", "type": "cell-based, Leishmania braziliensis", "conditions": "H2O2-incubated promastigotes", "procedure": "After treatment with Compound 28 (at a concentration corresponding to one IC50 value) for 48 h at 24 °C, L. braziliensis promastigotes were washed with PBS, and the parasite concentration was adjusted to 3 × 10^6 cells per well. H2DCFDA (Sigma-Aldrich, St. Louis, MO, USA) was then added and incubated for 30 min in the dark, and samples were read in a fluorometric microplate reader (FLx800, BioTek Instruments, Winooski, VT, USA) with excitation and emission wavelengths of 485 and 528 nm, respectively. Parasites that were untreated or treated with Compound 28 and not labeled with the fluorescent probe were used as the blank.\nFigure 4 ΔΨm and ROS production in Leishmania after exposure to Compound 28. Leishmania braziliensis promastigotes were not exposed (negative control) or exposed to Compound 28 (at a concentration corresponding to the IC50 value) for 48 h. (A) Depolarization of ΔΨm was evaluated using the JC-1 fluorescent probe. Samples were analyzed fluorometrically, and the results are expressed as the ratio of red/green fluorescence. FCCP ([…]) was used as a positive control. (B) ROS production was evaluated using the H2DCFDA probe. The fluorescence intensity was measured by fluorimetry, and the results are expressed as the fold increase in the ROS level compared with the non-treated control. H2O2-treated parasites were used as a positive control. […]"}, "[8]": {"test_system": "L. braziliensis-infected macrophages", "experiment": "ROS levels in Leishmania-infected macrophages (H2DCFDA)", "type": "cell-based, Leishmania braziliensis", "conditions": "H2O2 0.02 µg/mL (0.5 µmol/L)", "procedure": "Macrophages (1 × 10^6 cells/mL) were incubated in 96-well culture plates (Nunc, Nunclon, Roskilde, Denmark) and infected with L. braziliensis promastigotes (at a ratio of 10 parasites per cell). The infected macrophages were either left untreated or treated with Compound 28 (at a concentration of 5.0 µg/mL) for 48 h at 37 °C in 5% CO2. The cells were washed with PBS and incubated with 20 μmol/L H2DCFDA (Molecular Probes, Eugene, Oregon, USA) for 30 min in the dark. The fluorescence intensity was measured using a spectrofluorometer (FLx800; BioTek Instruments, Winooski, VT, USA) at 485 nm excitation and 528 nm emission. As a positive control, the infected macrophages were incubated with H2O2 at a concentration of 0.02 µg/mL (0.5 µmol/L). Parasites that were untreated with Compound 28 and not labeled with the fluorescent probe were used as the sample blank.\nFigure 3 Production of ROS in L. braziliensis-infected macrophages treated with Compound 28. Leishmania braziliensis-infected macrophages (1 × 10^5 cells) were incubated with Compound 28 (5.0 µg/mL) for 48 h at 37 °C in a 5% CO2 environment. Subsequently, 2′,7′-dichlorodihydrofluorescein diacetate (H2DCFDA, 9.7 μg/mL) was added for 30 min under dark conditions. The fluorescence levels were measured in a spectrofluorometer at 485/528 nm. H2O2 (0.5 µmol/L) was used as a positive control. […]"}, "[9]": {"conditions": "parasites pre-incubated with 2.5 µg/mL at 24 °C"}, "[10]": {"conditions": "parasites pre-incubated with 5.0 µg/mL at 24 °C"}}, "data": [{"smiles": "C[C@@H]1[C@H](O)[C@@H](C)/C=C/C=C/C=C/C=C/C=C/C=C/C=C/[C@H](O[C@@H]2O[C@H](C)[C@@H](O)[C@H](N)[C@@H]2O)C[C@@H]2O[C@](O)(C[C@@H](O)C[C@@H](O)[C@H](O)CC[C@@H](O)C[C@@H](O)CC(=O)O[C@H]1C)C[C@H](O)[C@H]2C(=O)O", "note": "[Amphotericin B, amphotericin B, reference compound]", "values": [{"measurement": "Number of Amastigotes per Cell after treatment", "setting": "[1]; 1.0 µg/mL", "value": 4.2}, {"measurement": "Percentage of Infected Macrophages after Treatment", "setting": "[1]; 1.0 µg/mL", "value": 39.1, "unit": "%"}, {"measurement": "Number of Amastigotes per Cell after treatment", "setting": "[1]; 2.5 µg/mL", "value": 3.5}, {"measurement": "Percentage of Infected Macrophages after Treatment", "setting": "[1]; 2.5 µg/mL", "value": 27.6, "unit": "%"}, {"measurement": "Number of Amastigotes per Cell after treatment", "setting": "[1]; 5.0 µg/mL", "value": 1.8}, {"measurement": "Percentage of Infected Macrophages after Treatment", "setting": "[1]; 5.0 µg/mL", "value": 19.8, "unit": "%"}, {"measurement": "Number of Amastigotes per Cell using pre-incubated parasites", "setting": "[2]; [9]", "value": 6.5}, {"measurement": "Percentage of Infected Macrophages Using Pre-Incubated Parasites", "setting": "[2]; [9]", "value": 67.6, "unit": "%"}, {"measurement": "Number of Amastigotes per Cell using pre-incubated parasites", "setting": "[2]; [10]", "value": 5.3}, {"measurement": "Percentage of Infected Macrophages Using Pre-Incubated Parasites", "setting": "[2]; [10]", "value": 51.4, "unit": "%"}, {"measurement": "Selectivity index (SI), ratio CC50/IC50, promastigotes", "setting": "[3]; CC50 murine macrophages / IC50 promastigotes", "value": 9.1}, {"measurement": "IC50", "setting": "[3]; Leishmania braziliensis, 48 h at 24 °C, MTT, mean ± standard deviation", "value": "0.974 ± 0.2", "unit": "µg/mL"}, {"measurement": "CC50 at 48 h", "setting": "[4]", "value": "8.9 ± 0.8", "unit": "µg/mL"}, {"measurement": "Selectivity index (SI), ratio CC50/IC50, axenic amastigotes", "setting": "[5]; CC50 murine macrophages / IC50 axenic amastigotes", "value": 6.8}, {"measurement": "IC50", "setting": "[5]; Leishmania braziliensis, 48 h, 48 h at 24 °C, MTT, mean ± standard deviation", "value": "1.3 ± 0.4", "unit": "µg/mL"}]}, {"smiles": "N#CC(C#N)=NNc1ccc(OC(F)(F)F)cc1", "note": "[FCCP, carbonyl cyanide-p-trifluoromethoxyphenylhydrazone, reference compound]", "values": [{"measurement": "ΔΨm, JC-1 ratio of red/green fluorescence (positive control)", "setting": "[6]", "value": 3.4}]}, {"smiles": "OO", "note": "[Compound H2O2, H2O2, reference compound]", "values": [{"measurement": "Fold increase in ROS levels compared with untreated parasites (positive control)", "setting": "[7]", "value": 1.6, "unit": "fold"}, {"measurement": "Increase in ROS production in infected cells (positive control)", "setting": "[8]", "value": 41.4, "unit": "%"}]}]}
